# Values joined by “and” are separate entries in the source; they are usually repeats but may differ in a detail not shown here. Equal entries are not always repeated. Where two headings read alike, the source gives them in different places.
# Tests used:
# [1] = PAVO Part 3: serum daratumumab concentration, pre-dose Cycle 3 Day 1; format: in vivo, human; settings: Cycle 3 Day 1 pre-dose
# [2] = system: patients with RRMM; test: PAVO Part 3: efficacy by IMWG response criteria; format: in vivo, human
# Experimental: The primary endpoint was safety of pre- and post-dose steroid tapering. Key secondary endpoints included the overall response rate (ORR) and the rate of complete response (CR).
# For the evaluation of efficacy, responses were assessed according to International Myeloma Working Group (IMWG) consensus recommendations (Durie et al., Leukemia 20(9):1467-73 (2006); Rajkumar et al., Blood 117(18):4691-95 (2011)). Disease evaluations were performed by a central laboratory.
# In PAVO Part 3, no formal statistical hypothesis testing was performed. Data were summarized descriptively. Continuous variables were summarized using the number of observations, mean and standard deviation (SD), coefficient of variation, median and range as appropriate. Categorical variables were summarized using the number of observations and percentages as appropriate. Duration of response and PFS were estimated using Kaplan-Meier methods.
# [3] = system: patients with RRMM; settings: PAVO Part 2; follow-up 14.2 months; cited from earlier work
# [4] = system: patients with multiple myeloma; settings: cited from earlier work
# [5] = system: patients with RRMM; test: PAVO Part 2: DARA SC safety and efficacy
# [6] = system: patients with RRMM; test: PAVO Part 3: infusion-related reactions (IRRs)
# Experimental: Safety was assessed, with an emphasis on IRRs, while corticosteroids were reduced and discontinued.
# The purpose of Part 3 was to evaluate the safety of daratumumab 1,800 mg SC delivery without predose and postdose corticosteroids after a 3-week, 2-week, and 1-week tapering schedule to assess the safety of corticosteroid-free SC daratumumab administration. […] In conjunction, patients also received a 3-week, 2-week, or 1-week steroid tapering schedule (FIG. 2). The 3-week tapering schedule (corticosteroid-free by Cycle 1 Day 22) consisted of methylprednisolone (MP) given orally (PO)/IV pre-dose (Cycle 1 Day 1, 100 mg; Cycle 1 Day 8, 60 mg; Cycle 1 Day 15, 30 mg) and PO post-dose (Cycle 1 Day 1, 20 mg for 2 days; Cycle 1 Day 8, 20 mg for 1 day; Cycle 1 Day 15, 20 mg for 1 day). The 2-week tapering schedule (corticosteroid-free by Cycle 1 Day 15) consisted of MP given PO/IV pre-dose (Cycle 1 Day 1, 100 mg; Cycle 1 Day 8, 60 mg) and PO post-dose (Cycle 1 Day 1, 20 mg for 2 days; Cycle 1 Day 8, 20 mg for 1 day). The 1-week tapering schedule (corticosteroid-free by Cycle 1 Day 8) consisted of dexamethasone 20 mg administered IV pre-dose on Cycle 1 Day 1, without post-dose administration.
# The 3-week, 2-week and 1-week steroid tapering schedules were assessed by “3+3” design, followed by cohort expansion to approximately 15 patients (3-week and 2-week tapering cohorts) or 12 patients (1-week tapering cohort). The dose-limiting toxicity (DLT) assessment period in the 3-week, 2-week and 1-week tapering cohorts were Cycle 1 Day 1 through Cycle 2 Day 4, Cycle 1 Day 1 through Cycle 1 Day 25, and Cycle 1 Day 1 through Cycle 1 Day 11, respectively. […] Grade 3 or 4 IRRs only qualified as DLTs if they occurred during corticosteroid reduction or discontinuation (not during Cycle 1 Day 1). For the 3-week and 2-week groups, IRRs reported at Cycle 1 Day 1 were not considered DLTs, as corticosteroids had not yet been reduced or discontinued. Up to approximately 12 patients could be enrolled in the 1-week tapering schedule to assess safety, including IRRs.
# Safety assessments included treatment-emergent adverse events (TEAEs), serious adverse events, and IRRs. All toxicities were graded according to the National Cancer Institute's Common Terminology for the Classification of Adverse Events (NCI-CTCAE) Version 4.03 (National Cancer Institute. Common Terminology Criteria for Adverse Events (CTCAE): Version 4.03.).
substance,measurement,setting,value
"DARA SC: 1,800 mg daratumumab co-formulated with 30,000 U rHuPH20 (2,000 U/mL, 15 mL), manual subcutaneous injection",Mean (SD) daratumumab serum concentration,[1]; 1-week taper,706 (270) μg/mL and 706 μg/mL
same,Mean (SD) daratumumab serum concentration,[1]; 2-week taper,731 (382) μg/mL and 731 μg/mL
same,Mean (SD) daratumumab serum concentration,[1]; 3-week taper,604 (280) μg/mL and 604 μg/mL
same,Mean (SD) daratumumab serum concentration,[1]; total PK-evaluable n=37,676 (314) μg/mL
same,9-month duration of response rate,[2]; 1-week taper,100%
same,Estimated 9-month PFS rate,[2]; 1-week taper,46.7%
same,Median PFS,[2]; 1-week taper,7.4 months
same,Median duration of response,[2]; 1-week taper,not reached
same,Median time to best response,[2]; 1-week taper,1.0 months
same,Patients achieving ≥CR,[2]; 1-week taper,1 (8.3%) n (%)
same,Patients achieving ≥VGPR,[2]; 1-week taper,2 (16.7%) n (%)
same,Rate of very good partial response or better,[2]; 1-week taper,16.7%
same,Overall response rate (ORR),"[2]; 1-week taper, median follow-up 8.3 months",41.7%
same,9-month duration of response rate,[2]; 2-week taper,83.3%
same,Estimated 9-month PFS rate,[2]; 2-week taper,36.1%
same,Median PFS,[2]; 2-week taper,4.7 months
same,Median duration of response,[2]; 2-week taper,16.7 months
same,Median time to best response,[2]; 2-week taper,1.9 months
same,Patients achieving ≥CR,[2]; 2-week taper,no patient
same,Patients achieving ≥VGPR,[2]; 2-week taper,5 (33.3%) n (%)
same,Rate of very good partial response or better,[2]; 2-week taper,33.3%
same,Overall response rate (ORR),"[2]; 2-week taper, median follow-up 11.1 months",40.0%
same,9-month duration of response rate,[2]; 3-week taper,83.3%
same,Estimated 9-month PFS rate,[2]; 3-week taper,40.0%
same,Median PFS,[2]; 3-week taper,5.9 months
same,Median duration of response,[2]; 3-week taper,not reached
same,Median time to best response,[2]; 3-week taper,1.5 months
same,Patients achieving ≥CR,[2]; 3-week taper,1 (6.7%) n (%)
same,Patients achieving ≥VGPR,[2]; 3-week taper,3 (20.0%) n (%)
same,Rate of very good partial response or better,[2]; 3-week taper,20.0%
same,Overall response rate (ORR),"[2]; 3-week taper, median follow-up 9.2 months",40.0%
same,Patients achieving ≥CR,[2]; Total n=42,"2 (4.8% (95% CI: 0.6%, 16.2%)) n (%)"
same,Patients achieving ≥VGPR,[2]; Total n=42,"10 (23.8% (95% CI: 12.1%, 39.5%)) n (%)"
same,Overall response rate (ORR),"[2]; Total n=42, median follow-up 8.3 months",40.5%
same,Estimated 9-month PFS rate,[2]; all treated N=42,40.7%
same,Median PFS,[2]; all treated N=42,5.9 months
same,Median time to best response,[2]; responders n=17,1.1 months
same,Median time to first response,[2]; responders n=17,1.0 months
same,Median duration of response,[3],15.7 months
same,ORR,[3],52%
same,Median PFS,[4]; COLUMBA primary analysis,5.6 months
same,Median duration of response,"[4]; COLUMBA, follow-up 7.5 months",not reached
same,Overall response rate,"[4]; COLUMBA, median follow-up 7.5 months",41%
same,"Lymphopenia, TEAE of Grade >3",[5],20.0%
same,Serious TEAEs in SOC General disorders and administration site conditions,[5],8.0%
same,TEAEs in SOC General disorders and administration site conditions,[5],72.0%
same,Patients with an IRR,[6]; 1-week taper,2 (16.7%) n (%)
same,Patients with an IRR,[6]; 2-week taper,3 (20.0%) n (%)
same,Patients with an IRR,[6]; 3-week taper,0 (0%) n (%)
same,Grade 4 IRRs,[6]; Total n=42,no grade 4 IRRs reported
same,IRR of increased blood pressure,[6]; Total n=42,1 (2.4%) n (%)
same,IRR of oropharyngeal pain,[6]; Total n=42,1 (2.4%) n (%)
same,IRR of tachycardia,[6]; Total n=42,1 (2.4%) n (%)
same,IRRs meeting the definition of a DLT,[6]; Total n=42,None of the IRRs met the definition of a DLT
same,Patients with an IRR,[6]; Total n=42,5 (11.9%) n (%)
same,Number of grade 3 IRRs,"[6]; increased blood pressure, 2-week taper, resolved on day of onset",1
